Test results published in patent publication US20250025500A1, “PHOSPHATASE INHIBITORS AS NK CELLS MODULATORS FOR THE TREATMENT OF CANCER” (Kanyr Pharma Inc., priority 2021, published 2025).

Columns and labels:
Assay type in all cases: cell-based, Human
[1] = tested on: NK-92 cells against K-562 cells; test: NK-92 cytolytic assay against K-562 tumor target cells (flow cytometry)
Description: Human NK cell line NK-92 was purchased from American Type Culture Collection (ATCC) and cultured in α-MEM Essential Medium (no ribonucleoside and deoxyribonucleoside) supplemented with 0.2 mM Myo-inositol, 0.02 mM Folic Acid, 0.1 mM β-mercaptoethanol, 1% of Non-essential Amino Acids, 1×L-Glutamax, 1% of Penicillin/Streptomycin, 12.5% of heat-inactivated Horse, and 12.5% of heat-inactivated Characterized Fetal Bovine Serum or FBS. The media was supplemented freshly with 200 IU/mL of IL-2 upon cell thawing for one passage and 100 IU/mL of IL-2 for cell expansion. Human tumor cell lines K-562 and Reh were purchased from ATCC and were cultured in RPM11640 Medium supplemented with 1% of Penicillin/Streptomycin and 10% of heat inactivated FBS. HEK293T/17 cells and HCT116 cells were cultured in Dulbecco's Modified Eagle's Medium (DMEM) High Glucose Medium supplemented with 1% of Penicillin/Streptomycin and 10% of FBS. All cell lines were maintained in 5% CO2, 37° C. incubator, except that NK-92 were maintained in 6.5% CO2 incubator at 37° C. All cell lines were maintained below 30 passages and tested regularly for mycoplasma infection using PCR.
NK-92 anti-tumor cytolysis function was assessed by flow cytometry-based analysis. Tumor target cells K-562 and Reh were labelled with cell tracker CFSE ([…]) or CMRA (5 μM) according to manufacturer's protocol at a maximum of one day before cytolysis experiment. On the experiment day, labelled tumor target cells were washed once with PBS and resuspend to desired cell concentration in complete cell media. NK-92 cells were washed and resuspended in complete media without cytokines to desired cell concentration. NK-92 cells and tumor target cells were plated at various effector: target (E:T) ratios with basal cell numbers at 50,000 cells per well in round-bottom 96-well plate and were co-cultured for 3 hours in 5% CO2, 37° C. incubator. After co-culture, cells were washed once with ice-cold PBS and stained with fixable viability dyes: Aqua (Invitrogen™) or UV Blue (Invitrogen™) or eFluor 780 (eBioscience Invitrogen™) at 1:2000 in dark for 20 mins at 4° C. Stained cells were washed twice with ice cold PBS and were fixed with 1% Paraformaldehyde (PFA) for 1 hour or 2% PFA for 30 mins in dark at 4° C. Flow cytometry sample acquisition was performed with BDO LSRFortessa™ with a UV laser at Flow Cytometry Core Facility, McGill University, and data was analyzed with FlowJo™ 10.7.1 and summarized with Prism™ 9 (GraphPad™). Calculation for % of specific cytolysis was followed by the equation: […]

NK-92 cells [2] = test: qRT-PCR of lytic granule and IFNG mRNA in NK-92; settings: steady state
Description: Total RNA was isolated with Qiagen™ RNeasy® Mini Kit™ without DNase I on column digestion, according to the manufactures protocol. Purified total RNA was resuspended in Dnase free, Rnase free, Protease free sterile water and quantified with NanoDrop™. A260/280 was above 2.0 (data not shown). RNA integrity was checked by gel electrophoresis. 500 ng of RNA was reverse transcribed into cDNA using the SuperScript™ III Reverse Transcriptase Kit™ (Thermo Fisher Scientific™), according to the manufacturer's protocol with random primer and Oligo(dT) 20 primer. Synthesized cDNA was treated with RNaseH. qRT-PCR was performed with BioRad™ CFX96 Real Time PCR Detection™ system using FastStart Essential DNA Green Master™ according to the manufacturer's instructions. TBP and B2M was used as housekeeping genes. Delta delta Cq method was used for analyzing relative expression of gene of interests with normalization to housekeeping genes.

[3] = tested on: JAK/STAT signaling in NK-92 cells; test: JAK/STAT signaling Western blot and IL-2 stimulation assay in NK-92
Description: Total cell lysate was prepared with modified RIPA buffer (1M Tris-HCl (pH 7.5), 5M NaCl, 0.25% sodium deoxycholate, 10% NP-40 and 10 mM sodium fluoride) supplemented with ethylenediaminetetraacetic acid (EDTA)-free protease inhibitor (Roche™) and 2 mM sodium orthovanadate (Sigma-Aldrich™). Protein levels were quantified by bicinchoninic acid (BCA) assay. Protein lysate was separated by 10% SDS-PAGE and Western analysis was performed using primary antibodies listed in the tables below followed with horseradish peroxidase (HRP, 1:10,000, Jackson ImmunoResearch™) conjugated secondary antibodies.
For cytokine stimulation assay, NK-92 cells were pre-treated with L598 (30 μM) or vehicle control for three days. Before IL-2 stimulation, NK-92 cells were washed once with serum depleted cell media (no IL-2) and were starved for six hours in presence of L598 or vehicle control. After starvation, NK-92 cells were stimulated with IL-2 across a gradient concentration ranging from 0 to 90 IU/mL for 15 mins at 37° C. After incubation, cells were directly lysed with 2× concentrated TNE buffer and then boiled in 1× Laemmli Buffer to prepare cell lysates. Two independent experiments were performed.

NK-92 cells [4] = test: IFN-γ ELISA of NK-92 supernatants; settings: 30 μM three days, with or without K-562 (E:T 6:1), vs control
Description: Concentration of secreted IFN-γ in supernatants of NK-92 co-cultured with K-562 cells (E:T at 6:1) or no-stimulation control (K-562 cell media) for four hours was analyzed with Human IFN-γ ELISA Kit (R&D, DIF50) according to the manufacture's protocol. Results were normalized against IFN-γ secreted by K-562 alone treated with NK-92 cell media (no cytokine) for four hours.

7-bromo-6-phosphono(difluoro-methyl)-3-napthalenonitrile [L598]
NK-92 cytolysis against K-562 in presence of TGF-β1, vs vehicle control ([1]; 10 μM with TGF-β 10 ng/mL, IL-2 media, three days): continued exhibiting enhanced anti-tumor cytolysis
cytolysis against K-562 after re-treatment ([1]; additional two-days treatment at same concentration): once more improved the anti-tumor cytolysis function to a similar level of the initial treatment
tumor cytolysis by NK-92 against K-562 with inhibitor titration ([1]; dosage increased up to 90 μM, three days, various E:T ratios): gradual increasing of tumor cytolysis
enhanced cytolysis against K-562 after inhibitor withdrawal ([1]; withdrawn for three days after initial 30 μM treatment): reversible
mRNA expression of perforin, granzyme A, granzyme B and granzyme K (NK-92 cells [2]; 30 μM three days): upregulated
IFN-γ mRNA (NK-92 cells [2]; 30 μM): upregulation
sensitivity to low dosage short-term IL-2 stimulation (phospho-STAT1, 3, 4, 5) ([3]; 30 μM three days, starved six hours, IL-2 below 100 IU/mL, 15 mins): more sensitive
minimum IL-2 at which increased STAT5 phosphorylation is detectable ([3]; IL-2 stimulation 15 mins after starvation): 30 IU/mL
total protein expression of STAT members ([3]; IL-2 stimulation assay): might upregulate
phosphorylation of STAT1, STAT3 and STAT4 under TGF-β1 and IL-2 ([3]; TGF-β1 and IL-2 stimulation condition): retained enhanced phosphorylation
basal phosphorylation of STAT1, STAT3 and STAT4 ([3]; after six-hours serum and cytokine starvation in presence of inhibitor): increased
phosphorylation of STAT2 and STAT6 ([3]; regular cell culture, inhibitor titration, three days): relatively stable
phosphorylation of STAT1, STAT3, STAT4 and STAT5 ([3]; regular cell culture, inhibitor titration, three days, dosage dependent): increased phosphorylation
IFN-γ protein secretion (NK-92 cells [4]): significantly more
